This is an account of results in patent US10660967B2, “Curcumin conjugates and methods of use thereof” (priority 2016, dated 2020).

Each structure is given as a SMILES string.

The test system of this experiment is carrageenan induced paw edema. Briefly: Anti-inflammatory activity: acute carrageenan induced paw edema in rats. It counts as in vivo, Wister rats. The conditions noted are these: 10 mg kg^−1 indomethacin mol equivalent; for % inhibition of edema / Mean edema thickness: intraperitoneally; for Mean edema thickness: mean ± SE; for Potency (% inhibition of edema relative to that of indomethacin reference standard): at 4 h effect. The protocol:
The anti-inflammatory activity of the tested compounds was determined in vivo by the acute carrageenan induced paw edema standard method in rats. See, Naumov, et al., Bioorg. Med. Chem. Lett, 25: 2314-2320 (2015), Tiwari, et al., Org. Biomol. Chem, 12: 7238-7249 (2014), Girgis, et al., Eur. J. Med. Chem, 50: 1-8 (2012), Barsoum, et al., Eur. J. Med. Chem, 44: 2172-2177 (2009), Girgis, et al., Eur. J. Med. Chem, 44: 1972-1977 (2009), Girgis, et al., Eur. J. Med. Chem, 44: 1257-1264 (2009), Girgis, et al., Eur. J. Med. Chem, 44: 91-100 (2009), Girgis, et al., Eur. J. Med. Chem, 43: 2116-2121 (2008), Girgis, et al., Bioorg. Med. Chem, 14: 8527-8532 (2006), and Barsoum, et al., Bioorg. Med. Chem, 14: 3929-3937 (2006).
Adult Wister rats of either sex (pregnant female animals were excluded) weighing 120-150 g were divided into 18 groups of 6 animals each. […] The control group was given DMSO only. Carrageenan paw edema was induced by subcutaneous injection of freshly prepared 1% solution of carrageenan in saline (0.9%, 0.1 ml per rat) into subplantar tissue of the right hind paw of rats. The thickness of the paw was measured (in mm) after successive time intervals (1, 2,3,4 and 24 h) and compared with the initial hind paw thickness of each rat for determining the edema thickness. Data were collected, checked, revised and analyzed. Quantitative variables from normal distribution were expressed as means±SE “standard error”. The anti-inflammatory activity was expressed as percentage inhibition of edema thickness in treated animals in comparison with the control group according to eqn. (1)
Where, Vc and Vt are the mean of edema paw thickness for the control and tested compound treated animal groups, respectively.
Background: Carrageenan injected into the paw causes an acute inflammation.

On to `COc1ccc2c(c1)c(CC(=O)O)c(C)n2C(=O)c1ccc(Cl)cc1` [Compound 2], for which the “Potency (% inhibition of edema relative to that of indomethacin reference standard)” value stood at 100. Besides, under “1 h”, the “% inhibition of edema” value worked out at 53% and the Mean edema thickness is 1.11 ± 0.12 mm. Under “2 h”, the “% inhibition of edema” value stood at 59% and the Mean edema thickness came out at 0.85 ± 0.09 mm. In addition, for the setting “3 h”, the “% inhibition of edema” value is 67% and the Mean edema thickness turned out to be 0.59 ± 0.06 mm. Also, under “4 h”, the “% inhibition of edema” value is given as 87% and the Mean edema thickness is listed as 0.18 ± 0.03 mm. In addition, for the setting “24 h”, the “% inhibition of edema” value is given as 86% and the Mean edema thickness is reported as 0.12 ± 0.02 mm.
Turning to `COc1cc(/C=C/C(=O)CC(=O)/C=C/c2ccc(OC(=O)[C@@H](C)NC(=O)OC(C)(C)C)c(OC)c2)ccc1OC(=O)[C@@H](C)NC(=O)OC(C)(C)C` [Compound 26], the “Potency (% inhibition of edema relative to that of indomethacin reference standard)” value amounted to 48. For the setting “1 h”, the “% inhibition of edema” value amounted to 22% and the Mean edema thickness was 1.87 ± 0.13 mm. Where the note is “2 h”, the “% inhibition of edema” value was 29% and the Mean edema thickness was determined as 1.46 ± 0.21 mm. For the same molecule, under “3 h”, the “% inhibition of edema” value came to 39% and the Mean edema thickness stood at 1.09 ± 0.11 mm. Where the note is “4 h”, the “% inhibition of edema” value worked out at 42% and the Mean edema thickness was found to be 0.81 ± 0.08 mm. Further, where the note is “24 h”, the “% inhibition of edema” value came out at 37% and the Mean edema thickness worked out at 0.52 ± 0.05 mm.
For `COc1cc(/C=C/C(=O)CC(=O)/C=C/c2ccc(OC(=O)[C@@H](N)C(C)C)c(OC)c2)ccc1OC(=O)[C@@H](N)C(C)C.Cl.Cl` [Compound 41], the “Potency (% inhibition of edema relative to that of indomethacin reference standard)” value amounted to 53. Moreover, under “1 h”, the “% inhibition of edema” value was found to be 60% and the Mean edema thickness was found to be 0.97 ± 0.10 mm. Where the note is “2 h”, the “% inhibition of edema” value worked out at 50% and the Mean edema thickness came out at 1.04 ± 0.12 mm. Where the note is “3 h”, the “% inhibition of edema” value is 48% and the Mean edema thickness turned out to be 0.93 ± 0.11 mm. Moreover, for the setting “4 h”, the “% inhibition of edema” value was 46% and the Mean edema thickness was determined as 0.75 ± 0.09 mm. For the same molecule, under “24 h”, the “% inhibition of edema” value was determined as 14% and the Mean edema thickness came to 0.71 ± 0.11 mm.
Turning to `COc1cc(/C=C/C(=O)CC(=O)/C=C/c2ccc(OC(=O)[C@@H](N)Cc3ccccc3)c(OC)c2)ccc1OC(=O)[C@@H](N)Cc1ccccc1.Cl.Cl` [Compound 34], the “Potency (% inhibition of edema relative to that of indomethacin reference standard)” value was determined as 97. Besides, where the note is “1 h”, the “% inhibition of edema” value worked out at 46% and the Mean edema thickness came to 1.29 ± 0.14 mm. Besides, under “2 h”, the “% inhibition of edema” value worked out at 51% and the Mean edema thickness amounted to 1.01 ± 0.11 mm. Moreover, where the note is “3 h”, the “% inhibition of edema” value was 63% and the Mean edema thickness came out at 0.66 ± 0.08 mm. Besides, where the note is “4 h”, the “% inhibition of edema” value was 84% and the Mean edema thickness is listed as 0.22 ± 0.03 mm. Under “24 h”, the “% inhibition of edema” value is 20% and the Mean edema thickness came out at 0.66 ± 0.04 mm.
For `COc1cc(/C=C/C(=O)CC(=O)/C=C/c2ccc(OC(=O)[C@H](CC(C)C)NC(=O)OCC3c4ccccc4-c4ccccc43)c(OC)c2)ccc1OC(=O)[C@H](CC(C)C)NC(=O)OCC1c2ccccc2-c2ccccc21` [Compound 16], the “Potency (% inhibition of edema relative to that of indomethacin reference standard)” value amounted to 57. Moreover, under “1 h”, the “% inhibition of edema” value is given as 40% and the Mean edema thickness was found to be 1.45 ± 0.18 mm. Besides, where the note is “2 h”, the “% inhibition of edema” value was determined as 41% and the Mean edema thickness worked out at 1.22 ± 0.25 mm. Further, where the note is “3 h”, the “% inhibition of edema” value is given as 48% and the Mean edema thickness is 0.93 ± 0.20 mm. For the same molecule, where the note is “4 h”, the “% inhibition of edema” value worked out at 50% and the Mean edema thickness is reported as 0.70 ± 0.19 mm. For the setting “24 h”, the “% inhibition of edema” value came out at 40% and the Mean edema thickness was determined as 0.50 ± 0.10 mm.
On to `COc1cc(/C=C/C(=O)CC(=O)/C=C/c2ccc(OC(=O)[C@H](C)NC(=O)OC(C)(C)C)c(OC)c2)ccc1OC(=O)[C@H](C)NC(=O)OC(C)(C)C` [Compound 24], for which the “Potency (% inhibition of edema relative to that of indomethacin reference standard)” value is listed as 32. Besides, under “1 h”, the “% inhibition of edema” value is 6% and the Mean edema thickness is given as 2.26 ± 0.20 mm. Further, for the setting “2 h”, the “% inhibition of edema” value is recorded as 11% and the Mean edema thickness stood at 1.84 ± 0.17 mm. Besides, for the setting “3 h”, the “% inhibition of edema” value worked out at 20% and the Mean edema thickness is recorded as 1.44 ± 0.14 mm. Under “4 h”, the “% inhibition of edema” value is recorded as 28% and the Mean edema thickness stood at 1.04 ± 0.18 mm. Under “24 h”, the “% inhibition of edema” value stood at 5% and the Mean edema thickness worked out at 0.79 ± 0.17 mm.
For `COc1cc(/C=C/C(=O)CC(=O)/C=C/c2ccc(OC(=O)[C@H](C)NC(=O)OCc3ccccc3)c(OC)c2)ccc1OC(=O)[C@H](C)NC(=O)OCc1ccccc1` [Compound 6], the “Potency (% inhibition of edema relative to that of indomethacin reference standard)” value came out at 14. Further, for the setting “1 h”, the “% inhibition of edema” value is 56% and the Mean edema thickness worked out at 1.05 ± 0.24 mm. For the same molecule, where the note is “2 h”, the “% inhibition of edema” value is reported as 23% and the Mean edema thickness is reported as 1.59 ± 0.21 mm. For the setting “3 h”, the “% inhibition of edema” value is recorded as 22% and the Mean edema thickness is 1.40 ± 0.19 mm. Moreover, where the note is “4 h”, the “% inhibition of edema” value came out at 12% and the Mean edema thickness was determined as 1.23 ± 0.25 mm. Also, where the note is “24 h”, the “% inhibition of edema” value is given as 0% and the Mean edema thickness was 0.83 ± 0.17 mm.
As to `COc1cc(/C=C/C(=O)CC(=O)/C=C/c2ccc(OC(=O)CN)c(OC)c2)ccc1OC(=O)CN.Cl.Cl` [Compound 33], the “Potency (% inhibition of edema relative to that of indomethacin reference standard)” value came out at 101. In addition, under “1 h”, the “% inhibition of edema” value amounted to 66% and the Mean edema thickness amounted to 0.82 ± 0.09 mm. Under “2 h”, the “% inhibition of edema” value is listed as 67% and the Mean edema thickness came out at 0.69 ± 0.03 mm. Where the note is “3 h”, the “% inhibition of edema” value is 74% and the Mean edema thickness amounted to 0.46 ± 0.03 mm. Moreover, for the setting “4 h”, the “% inhibition of edema” value amounted to 88% and the Mean edema thickness was found to be 0.17 ± 0.01 mm. In addition, where the note is “24 h”, the “% inhibition of edema” value was determined as 42% and the Mean edema thickness stood at 0.48 ± 0.03 mm.
For the molecule `COc1cc(/C=C/C(=O)CC(=O)/C=C/c2ccc(O)c(OC)c2)ccc1O` [Compound 4], the “Potency (% inhibition of edema relative to that of indomethacin reference standard)” value was found to be 98. Moreover, where the note is “1 h”, the “% inhibition of edema” value is on record as 12% and the Mean edema thickness stood at 2.12 ± 0.19 mm. Also, for the setting “2 h”, the “% inhibition of edema” value was found to be 60% and the Mean edema thickness worked out at 0.82 ± 0.11 mm. Besides, where the note is “3 h”, the “% inhibition of edema” value turned out to be 75% and the Mean edema thickness is 0.45 ± 0.08 mm. For the same molecule, under “4 h”, the “% inhibition of edema” value was determined as 85% and the Mean edema thickness was 0.21 ± 0.08 mm. Further, for the setting “24 h”, the “% inhibition of edema” value was found to be 36% and the Mean edema thickness worked out at 0.53 ± 0.10 mm.
As for `COc1cc(/C=C/C(=O)CC(=O)/C=C/c2ccc(OC(=O)[C@H](CCSC)NC(=O)OCC3c4ccccc4-c4ccccc43)c(OC)c2)ccc1OC(=O)[C@H](CCSC)NC(=O)OCC1c2ccccc2-c2ccccc21` [Compound 17], the “Potency (% inhibition of edema relative to that of indomethacin reference standard)” value is on record as 113. Moreover, where the note is “1 h”, the “% inhibition of edema” value is 46% and the Mean edema thickness is listed as 1.30 ± 0.04 mm. Besides, under “2 h”, the “% inhibition of edema” value amounted to 73% and the Mean edema thickness was 0.56 ± 0.17 mm. Further, where the note is “3 h”, the “% inhibition of edema” value amounted to 75% and the Mean edema thickness is reported as 0.45 ± 0.18 mm. For the setting “4 h”, the “% inhibition of edema” value is recorded as 98% and the Mean edema thickness is reported as 0.03 ± 0.01 mm. Where the note is “24 h”, the “% inhibition of edema” value was determined as 23% and the Mean edema thickness came to 0.64 ± 0.02 mm.
In the case of `COc1cc(/C=C/C(=O)CC(=O)/C=C/c2ccc(OC(=O)[C@@H](N)CCC(N)=O)c(OC)c2)ccc1OC(=O)[C@@H](N)CCC(N)=O.Cl.Cl` [Compound 43], the “Potency (% inhibition of edema relative to that of indomethacin reference standard)” value worked out at 48. Under “1 h”, the “% inhibition of edema” value was found to be 46% and the Mean edema thickness came out at 1.29 ± 0.19 mm. Moreover, where the note is “2 h”, the “% inhibition of edema” value was 45% and the Mean edema thickness is 1.14 ± 0.11 mm. Where the note is “3 h”, the “% inhibition of edema” value was 43% and the Mean edema thickness is on record as 1.02 ± 0.14 mm. In addition, under “4 h”, the “% inhibition of edema” value amounted to 42% and the Mean edema thickness amounted to 0.81 ± 0.11 mm. Also, for the setting “24 h”, the “% inhibition of edema” value is 31% and the Mean edema thickness is recorded as 0.57 ± 0.09 mm.
